Measured values taken from PMC7921015, “Spatiotemporal GLP-1 and GIP receptor signaling and trafficking/recycling dynamics induced by selected receptor mono- and dual-agonists” (Molecular Metabolism, 2021).

Tests used:
human GIPR [1] = target: T1, human GIPR (Homo sapiens, UniProt P48546); assay: β-arrestin 1 recruitment BRET assay, GIPR; assay type: cell-based
T1 sequence (P48546 22-466): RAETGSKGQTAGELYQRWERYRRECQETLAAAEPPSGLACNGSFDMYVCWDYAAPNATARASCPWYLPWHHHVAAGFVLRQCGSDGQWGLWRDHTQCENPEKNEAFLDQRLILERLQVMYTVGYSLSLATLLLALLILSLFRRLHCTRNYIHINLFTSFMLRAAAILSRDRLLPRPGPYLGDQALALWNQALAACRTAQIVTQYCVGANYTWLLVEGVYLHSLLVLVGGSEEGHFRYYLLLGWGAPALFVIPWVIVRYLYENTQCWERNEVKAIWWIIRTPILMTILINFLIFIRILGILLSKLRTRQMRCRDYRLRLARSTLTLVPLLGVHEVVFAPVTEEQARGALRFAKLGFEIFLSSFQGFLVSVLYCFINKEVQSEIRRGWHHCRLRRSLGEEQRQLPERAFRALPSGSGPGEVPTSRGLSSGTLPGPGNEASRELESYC
Description: (§1) The cells were seeded (700,000 cells/well) in 6-well plates and incubated to ∼70% confluency in complete media supplemented with 10% FBS and 1% Pen-Strep. […] Baseline measurements were taken after 5 min of incubation with coelenterazine-h or NanoGlo. The cells were then treated with a vehicle or the respective agonists. […] The temporal data of the vehicle-corrected agonist measurement was then normalized to the baseline reading of the same well. The first BRET reading following treatment with agonist/vehicle was the subsequent measurement after the zero time point. Positive or negative incremental areas under the curves (+iAUC/-iAUC) were calculated where noted. Each experiment was independently performed at least three times, with at least two technical replicates for each group.
(§2) Co-localization of β-arrestin1/2-RLUC8 with GLP-1R-GFP or GIPR-GFP was assessed.
(§3) Data are represented as means ± S.E.M. Each experiment was independently conducted at least three times, each with at least two technical replicates. […] Dose responses were fitted using non-linear regression. pEC50 and EC50 values were calculated using GraphPad Prism 8.0 (GraphPad, San Diego, CA, USA). Statistical analyses were calculated in GraphPad 8.0 using one-way analysis of variance (ANOVA) and corrected with Tukey's or Bonferroni's multiple comparison test. Differences are considered significant with an adjusted p value < 0.05.

human GLP-1R [2] = target: T2, human GLP-1R (Homo sapiens, UniProt P43220); assay: Gαq (mini-G) recruitment BRET assay, GLP-1R; assay type: cell-based; conditions: HEK-293T, HEK293T, GLP-1R-GFP + NLuc-mini-G, +iAUC 60 min, mean ± SEM, at least 3 experiments
T2 construct: host or cells: HEK293T
T2 sequence (P43220 24-463): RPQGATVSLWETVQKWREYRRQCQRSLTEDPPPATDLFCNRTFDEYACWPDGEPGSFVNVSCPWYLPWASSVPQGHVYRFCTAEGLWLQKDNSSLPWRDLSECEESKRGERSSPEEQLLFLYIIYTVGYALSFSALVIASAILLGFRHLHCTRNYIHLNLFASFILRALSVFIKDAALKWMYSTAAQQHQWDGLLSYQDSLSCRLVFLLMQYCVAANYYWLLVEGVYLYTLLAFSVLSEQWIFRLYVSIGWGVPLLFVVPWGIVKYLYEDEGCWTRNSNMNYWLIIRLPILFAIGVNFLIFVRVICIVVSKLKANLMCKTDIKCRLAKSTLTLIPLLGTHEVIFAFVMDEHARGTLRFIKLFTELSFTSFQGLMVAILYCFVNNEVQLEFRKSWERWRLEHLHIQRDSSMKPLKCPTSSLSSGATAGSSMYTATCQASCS

human GIPR [3] = target: T1, human GIPR; assay: Gαs (mini-G) recruitment BRET assay, GIPR; assay type: cell-based; conditions: HEK293T, GIPR-GFP + NLuc-mini-G, +iAUC 60 min
human GLP-1R [4] = target: T2, human GLP-1R; assay: GPCR internalization assay (loss of BRET with Venus-KRAS), GLP-1R; assay type: cell-based; conditions: HEK-293T, HEK293T, hGLP-1R-Rluc8 + Venus-KRAS, iAUC 60 min, mean ± SEM, at least 3 experiments, SEM, read-out: Receptor Internalization Emax (% GLP-1)
human GIPR [5] = target: T1, human GIPR; assay: GPCR internalization assay (loss of BRET with Venus-KRAS), GIPR; assay type: cell-based; conditions: HEK293T, hGIPR-Rluc8 + Venus-KRAS, iAUC 20 min, mean ± SEM, SEM
human GLP-1R [6] = target: T2, human GLP-1R; assay: cAMP assay (CAMYEL BRET sensor), GLP-1R; assay type: cell-based
Description: as §1
(§4) CAMYEL, a cAMP sensor using YFP-Epac-RLuc was utilized to quantify cAMP accumulation with the temporal resolution. Then, 500 ng of CAMYEL DNA was co-transfected with 500 ng of DNA of untagged GLP-1R or GIPR per well in a 6-well plate. The experiments were performed in the absence of 3-isobutyl-1-methylxanthine (IBMX).
as §3

human GIPR [7] = target: T1, human GIPR; assay: Gαq (mini-G) recruitment BRET assay, GIPR; assay type: cell-based; conditions: HEK293T, GIPR-GFP + NLuc-mini-G, +iAUC 60 min
human GLP-1R [8] = target: T2, human GLP-1R; assay: Endosomal trafficking assay (Venus-Rab5/7/11 co-localization), GLP-1R, HEK293T; assay type: cell-based; conditions: six experiments
Description: GPCR endosomal trafficking was assessed by measuring the ligand-stimulated gain in resonance energy transfer between Venus-Rab5/7/11 and hGLP-1R-RLUC8 or hGIPR-RLUC. Then, 100 ng of the respective Venus-Rab subtype DNA and 100 ng of hGLP-1R-RLUC8 or hGIPR-RLUC8 DNA were co-transfected into each well in a 6-well plate.

human GIPR [9] = target: T1, human GIPR; assay: β-arrestin 2 recruitment BRET assay, GIPR; assay type: cell-based; conditions: HEK293T, GIPR-GFP + β-arrestin2-RLUC8, BRET, +iAUC 30 min
Description: as §1, §2, §3

human GIPR [10] = target: T1, human GIPR; assay: cAMP assay (CAMYEL BRET sensor), GIPR; assay type: cell-based
Description: as §1, §4, §3

human GLP-1R [11] = target: T2, human GLP-1R; assay: Gαs (mini-G) recruitment BRET assay, GLP-1R; assay type: cell-based; conditions: HEK-293T, HEK293T, GLP-1R-GFP + NLuc-mini-G, +iAUC 60 min, mean ± SEM, at least 3 experiments
Human GLP-1R-GFP (human) [12] = target: Human GLP-1R-GFP (human) (UniProt P43220)
Sequence of Human GLP-1R-GFP (human) (P43220 24-463): as above

Human GLP-1R-GFP (human) [13] = target: Human GLP-1R-GFP (human) (UniProt P43220); remark: listed apart in the source

CC[C@H](C)[C@H](NC(=O)[C@H](CC(C)C)NC(=O)[C@H](Cc1c[nH]c2ccccc12)NC(=O)[C@H](CCC(N)=O)NC(=O)[C@@H](NC(=O)[C@H](Cc1ccccc1)NC(=O)[C@H](C)NC(=O)[C@H](CCCCNC(=O)COCCOCCNC(=O)COCCOCCNC(=O)CC[C@H](NC(=O)CCCCCCCCCCCCCCCCCCC(=O)O)C(=O)O)NC(=O)[C@H](CCC(N)=O)NC(=O)[C@H](C)NC(=O)[C@@H](NC(=O)[C@H](CCCCN)NC(=O)[C@H](CC(=O)O)NC(=O)[C@H](CC(C)C)NC(=O)C(C)(C)NC(=O)[C@@H](NC(=O)[C@H](CO)NC(=O)[C@H](Cc1ccc(O)cc1)NC(=O)[C@H](CC(=O)O)NC(=O)[C@H](CO)NC(=O)[C@@H](NC(=O)[C@H](Cc1ccccc1)NC(=O)[C@@H](NC(=O)CNC(=O)[C@H](CCC(=O)O)NC(=O)C(C)(C)NC(=O)[C@@H](N)Cc1ccc(O)cc1)[C@@H](C)O)[C@@H](C)O)[C@@H](C)CC)[C@@H](C)CC)C(C)C)C(=O)N[C@@H](C)C(=O)NCC(=O)NCC(=O)N1CCC[C@H]1C(=O)N[C@@H](CO)C(=O)N[C@@H](CO)C(=O)NCC(=O)N[C@@H](C)C(=O)N1CCC[C@H]1C(=O)N1CCC[C@H]1C(=O)N1CCC[C@H]1C(=O)N[C@@H](CO)C(N)=O [tirzepatide, reference compound]
EC50 (human GIPR [1]; HEK293T, GIPR-GFP + β-arrestin1-RLUC8, BRET, +iAUC 30 min; read-out: β-arr1 Recruitment EC50): > 1000 nM
EC50 (human GIPR [1]; HEK293T, GIPR-GFP + β-arrestin1-RLUC8, BRET, +iAUC 30 min; read-out: β-arr1 Recruitment pEC50 (converted)): > 1000 nM
Emax (human GLP-1R [2]): 17%
EC50 (human GIPR [3]; read-out: Gαs Recruitment EC50): 324 nM
Emax (human GIPR [3]; HEK-293T, mean ± SEM, at least 3 experiments, SEM, read-out: Gαs Recruitment Emax (% GIP)): 43 ± 3%
Emax (human GLP-1R [4]): 24 ± 4%
EC50 (human GIPR [5]; read-out: Receptor Internalization pEC50 (converted)): 4.68 nM
Emax (human GIPR [5]; HEK-293T, at least 3 experiments, read-out: Receptor Internalization Emax (% GIP)): 18 ± 1%
Emax (human GLP-1R [6]; HEK-293T, HEK293T transiently expressing untagged GLP-1R, CAMYEL sensor, no IBMX, +iAUC of 25 min response, 3-parameter fit, mean ± SEM, at least 3 experiments, SEM): 102 ± 4%
EC50 (human GIPR [7]; mean ± SEM, SEM, read-out: Gαq Recruitment pEC50 (converted)): 132 nM
Gαq Recruitment Emax (% GIP) (human GIPR [7]; mean ± SEM, at least 3 experiments, listed as Dual Agonist (Tirzepatide), SEM): 71 ± 1 [-29]*^# % GIP
EC50 (human GIPR [7]; read-out: Gαq Recruitment EC50): 164 nM
Emax (human GIPR [7]; HEK-293T, mean ± SEM, at least 3 experiments, read-out: Gαq Recruitment Emax (% GIP)): 85%
total GLP-1R Rab5 co-localization, of that elicited by GLP-1 (7–36 amide) (human GLP-1R [8]; 1 μM stimulation, hGLP-1R-Rluc8 + Venus-Rab5 (early endosomes), +iAUC): 13%
co-localization of GLP-1R with Rab7 positive (late) endosomes, of the response of GLP-1 (7–36 amide) (human GLP-1R [8]; hGLP-1R-Rluc8 + Venus-Rab7, +iAUC): 24%
GLP-1R co-localization with Rab11-positive recycling endosomes, decrease vs GLP-1 (7–36 amide) (human GLP-1R [8]; hGLP-1R-Rluc8 + Venus-Rab11, +iAUC): 54%
EC50 (human GIPR [9]; mean ± SEM, SEM, read-out: β-arr2 Recruitment pEC50 (converted)): 39.8 nM
EC50 (human GIPR [10]; HEK293T, GIPR, CAMYEL sensor, no IBMX, +iAUC 25 min, read-out: cAMP EC50): 13.3 nM
Emax (human GLP-1R [11]): 31%

CCCCCCCCCCCCCCCC(=O)NCCCC[C@H](NC(=O)[C@H](CO)NC(=O)[C@@H]1CCCN1C(=O)[C@@H]1CCCN1C(=O)[C@@H]1CCCN1C(=O)[C@H](C)NC(=O)CNC(=O)[C@H](CO)NC(=O)[C@H](CO)NC(=O)[C@@H]1CCCN1C(=O)CNC(=O)CNC(=O)[C@H](C)NC(=O)[C@H](CC(C)C)NC(=O)[C@H](CC(C)C)NC(=O)[C@H](Cc1c[nH]c2ccccc12)NC(=O)[C@H](CC(N)=O)NC(=O)[C@@H](NC(=O)[C@H](Cc1ccccc1)NC(=O)[C@H](CCC(=O)O)NC(=O)C(C)(C)NC(=O)[C@H](C)NC(=O)[C@H](C)NC(=O)[C@H](CCC(N)=O)NC(=O)[C@H](CCCCN)NC(=O)[C@H](CC(=O)O)NC(=O)[C@H](CC(C)C)NC(=O)[C@H](Cc1ccc(O)cc1)NC(=O)[C@@H](NC(=O)[C@H](CO)NC(=O)[C@H](Cc1ccc(O)cc1)NC(=O)[C@H](CC(=O)O)NC(=O)[C@H](CO)NC(=O)[C@@H](NC(=O)[C@H](Cc1ccccc1)NC(=O)[C@@H](NC(=O)CNC(=O)[C@H](CCC(=O)O)NC(=O)C(C)(C)NC(=O)[C@@H](N)Cc1ccc(O)cc1)[C@@H](C)O)[C@@H](C)CC)[C@@H](C)CC)C(C)C)C(N)=O [fatty acyl-GIP]
EC50 (human GIPR [1]; read-out: β-arr1 Recruitment EC50; HEK293T, GIPR-GFP + β-arrestin1-RLUC8, BRET, +iAUC 30 min): > 1000 nM
EC50 (human GLP-1R [6]): 181 nM
EC50 (human GIPR [9]; read-out: β-arr2 Recruitment EC50): > 1000 nM
EC50 (human GIPR [10]): 1.34 nM
Emax (human GIPR [10]; HEK-293T, HEK293T transiently expressing untagged GIPR, CAMYEL sensor, no IBMX, +iAUC of 25 min response, 3-parameter fit, mean ± SEM, at least 3 experiments, SEM, read-out: cAMP Emax (% GIP)): 97 ± 2%

Tirzepatide (peptide)
GLP-1R co-localization with Rab5 early endosomes (BRET of hGLP-1R-Rluc8 with Venus-Rab5, HEK293T), 1 μM, % of GLP-1 (7–36 amide) (Human GLP-1R-GFP (human) [12]): 13%
GLP-1R co-localization with Rab7 late endosomes (BRET of hGLP-1R-Rluc8 with Venus-Rab7, HEK293T), % of GLP-1 (7–36 amide) (Human GLP-1R-GFP (human) [12]): 24%
GLP-1R co-localization with Rab11 recycling endosomes (BRET of hGLP-1R-Rluc8 with Venus-Rab11, HEK293T), decrease against GLP-1 (7–36 amide) (Human GLP-1R-GFP (human) [12]): 54%
GLP-1R internalization Emax, % of GLP-1 (7–36 amide) (loss of BRET between hGLP-1R-Rluc8 and Venus-KRAS, HEK293T) (Human GLP-1R-GFP (human) [13]): 13%
